Assay results: patent publication US7090872B2, “Antioxidant, skin preparation for external use, cosmetic and food” (Nichirei Biosciences Inc., priority 2002, dated 2006)

Assay: Antioxidative activity measurement using linoleic acid (ferric thiocyanate method)
Settings: 0.023 mg of vitamin C (amount contained in 0.4 mg of the solid); control = 100%
Procedure: Next, the antioxidative activity of the obtained extract was measured by antioxidative activity measurement using linoleic acid (ferric thiocyanate method).
Specifically, a mixture of 0.4 mg of the acerola seed extract, 2 ml of 99.5% ethanol, and 2 ml of distilled water was mixed with a reaction liquid composed of 2 ml of 2.5% (w/v) linoleic acid (99.5% ethanol solution) and 4 ml of a 0.05 M phosphate buffer (pH 7.0), and placed in a brown threaded bottle, to thereby prepare 10 ml of a test liquid. On the other hand, test liquids as positive controls were prepared in the same way using α-tocopherol or BHA in place of the acerola seed extract at the same content in the reaction liquid. […] Samples were taken out at intervals, and measured by the following methods. […]
First, to a mixture of 0.1 ml of the sample, 9.7 ml of 75% ethanol, and 0.1 ml of a 30% aqueous solution of ammonium rhodanide, 0.1 ml of 2×10^−2 M ferrous chloride (3.5% hydrochloric acid solution) was added, and exactly 3 minutes later, the absorbance at 500 nm was measured. The same measurement was made with the blanks, and Δabsorbance was taken according to the following formula: Δ absorbance=(absorbance of main sample)−(absorbance of blank). The absorbance increases with oxidation of the sample, and after reaching the maximum, decreases with consumption of the sample to be oxidized. […]

SMILES: O=C1O[C@H]([C@@H](O)CO)C(O)=C1O [vitamin C]
- degree of oxidation on day 7: 115.8%
